Assay results reported in US6852317B2 (priority 2000, dated 2005).

Tested on: Alternaria

Nc1nc2cccc(-c3ccc(CN4CCS(=O)(=O)CC4)cc3)n2n1 [metabolite]
activity after heating (heating to 80 degrees C. for one hour): not lost
activity after treatment with acid (treated with acid): lost
score against Alternaria after acid treatment (treated with acid, score before treatment 0, 0-5 scale): 5
activity after treatment with base (treated with base): not lost
